{
  "source": "paper PMC5938390",
  "about": "“Tachyplesin Causes Membrane Instability That Kills Multidrug-Resistant Bacteria by Inhibiting the 3-Ketoacyl Carrier Protein Reductase FabG” (Frontiers in Microbiology, 2018)",
  "molecules": {"B1": {"name": "tachyplesin III (peptide)", "peptide": "KWCFRVCYRGICYRKCR", "modifications": "disulfide 7-12, 3-16; ends not checked", "notes": "tachyplesin III, cationic beta-hairpin antimicrobial peptide from horseshoe crab hemocytes; 17 residues; Coupled to the CM5 chip through amines in the SPR; source: synthetic peptide (purity ≥ 95%, synthesized by GL Biochem Co., Ltd, Shanghai, China)"}},
  "key": {"[1]": {"system": "E. coli 513", "assay": "MIC against clinical isolate", "type": "cell-based, Escherichia coli"}, "[2]": {"system": "K. pneumoniae 5", "assay": "MIC against clinical isolate", "type": "cell-based, Klebsiella pneumoniae"}, "[3]": {"system": "E. coli 513", "assay": "Transcriptome analysis (RNA sequencing, FPKM, DESeq)", "type": "cell-based, Escherichia coli", "settings": "Ec, Ta 16 μg/ml or Lvf 32 μg/ml, 30 min, 37°C", "description": "(§1) The Vitek 32 system (bioMerieux, France) and 16S rDNA sequencing were used to verify the clinical isolates A. baumannii 1408, P. aeruginosa 1409, Klebsiella pneumoniae 5 and E. coli 513, which were grown overnight in Luria-Bertani (LB) medium at 37°C with constant shaking at 220 rpm to reach the middle of their logarithmic growth phase. […] After the addition of 2 volumes of RNAprotect Bacteria Reagent (QIAGEN) to stabilized RNA, samples were vortexed for 5 s, incubated for 5 min at room temperature (15–25°C) and collected by centrifugation at 4°C for 5 min at 4000 g.\n(§2) RNA isolation and sequencing were performed by Novogene Bioinformatics Technology Co., Ltd. (Beijing, China) as previously described ([Liu B. et al., 2014]). Clean reads were mapped to the corresponding bacterial genomes using Bowtie 2 software ([Langmead and Salzberg, 2012]). Gene expression was calculated using the FPKM (expected number of fragments per kilobase of transcript sequence per millions of base pairs sequenced) method with HTSeq software (union model) ([Anders et al., 2015]). Differentially expressed genes were selected based on the DESeq R package with Padj values < 0.05 ([Anders and Huber, 2010]). KEGG pathway analysis was performed using KOBAS (2.0), and the corrected p value cut-off was set at 0.05 ([Li et al., 2015])."}, "[4]": {"system": "A. baumannii 1408", "assay": "Transcriptome analysis (RNA sequencing, FPKM, DESeq)", "type": "cell-based, Acinetobacter baumannii", "settings": "Ab, Ta 16 μg/ml or Lvf 32 μg/ml, 30 min, 37°C", "description": "as §1, §2"}, "[5]": {"system": "P. aeruginosa strain 1409", "assay": "Membrane rupture by propidium iodide staining", "type": "cell-based, Pseudomonas aeruginosa", "settings": "LB medium, 25°C, 1 h, then PI 10 μg/ml 30 min", "description": "These studies were carried out as we previously reported with slight modifications and briefly introduced as follows ([Liu et al., 2017]). […] Cytotoxicity in different cell lines was assessed using the Cell Proliferation Kit II (XTT) (Roche), and cytotoxicity in hemocytes was evaluated by the increase in the absorbance at 540 nm after peptide incubation. Membrane rupture was indicated by the entrance of the DNA-binding fluorescent dye PI into MDR clinical isolates of P. aeruginosa strain 1409. Membrane translocation of N-terminal FITC-conjugated tachyplesin III (purity ≥ 95%, synthesized by GL Biochem Co., Ltd, Shanghai, China) into MDR clinical isolates of Acinetobacter baumannii strain 1408 were detected by confocal laser-scanning microscopy.\nAfter centrifugation at 3000 g for 10 min, cells were resuspended in the same volume of PBS (phosphate-buffered saline, 8 g/L NaCl, 0.2 g/L KCl, 1.44 g/L Na2HPO4, 0.24 g/L KH2PO4, pH 7.4). Then, PI was added to a final concentration of 10 μg/ml. After 30 min of incubation at 25°C, the cells were washed three times with PBS and immediately imaged with a fluorescence microscope."}, "[6]": {"system": "P. aeruginosa 1409", "type": "cell-based, Pseudomonas aeruginosa", "settings": "Pa, Ta 16 μg/ml or Lvf 32 μg/ml, 30 min, 37°C", "description": "as §1, §2"}, "[7]": {"system": "P. aeruginosa 1409", "assay": "MIC against MDR clinical isolate", "type": "cell-based, Pseudomonas aeruginosa"}, "[8]": {"system": "K. pneumoniae 5", "assay": "Transcriptome analysis (RNA sequencing, FPKM, DESeq)", "type": "cell-based, Klebsiella pneumoniae", "settings": "Kp, Ta 16 μg/ml or Lvf 32 μg/ml, 30 min, 37°C", "description": "as §1, §2"}, "[9]": {"system": "A. baumannii 1408", "assay": "MIC against MDR clinical isolate", "type": "cell-based, Acinetobacter baumannii"}, "[10]": {"biological_target": "T1, 3-ketoacyl carrier protein reductase FabG from E. coli (E. coli, UniProt P0AEK2 1-244)", "T1 construct": "FabG, 3-ketoacyl-acyl carrier protein reductase, E. coli; cloned into the NcoI and XhoI sites of pET28a; also called 3-ketoacyl-acyl carrier protein reductase; β-ketoacyl-acyl carrier protein (ACP) reductase FabG; source: E. coli BL21 DE3 (pET28a), purified with Ni resin", "T1 sequence": "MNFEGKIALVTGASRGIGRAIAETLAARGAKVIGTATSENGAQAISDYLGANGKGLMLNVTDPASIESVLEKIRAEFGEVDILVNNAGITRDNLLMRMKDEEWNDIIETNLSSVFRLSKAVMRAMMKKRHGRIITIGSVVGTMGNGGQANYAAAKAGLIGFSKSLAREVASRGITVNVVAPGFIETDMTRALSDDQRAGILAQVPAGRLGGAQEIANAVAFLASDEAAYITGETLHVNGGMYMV", "assay": "SPR; tachyplesin III amine-coupled to a CM5 chip (approximately 1000 resonance units); FabG (1.25, 2.5, 5, 10 μg/mL) in HBS-N running buffer injected at 20 μl/min for 6 min; Biacore 3000; 1:1 Langmuir binding model", "settings": "both partners purified"}},
  "note": "Positions of bridges follow the written chain, without caps; N, C: chain ends. No end group written: not given here.",
  "data": [
    {"molecule": "C[C@H]1COc2c(N3CCN(C)CC3)c(F)cc3c(=O)c(C(=O)O)cn1c23", "note": "[levofloxacin]", "values": [
      {"measurement": "32 μg/ml levofloxacin expressed as multiple of MIC", "setting": "[1]", "result": 1, "unit": "× MIC"},
      {"measurement": "32 μg/ml levofloxacin expressed as multiple of MIC", "setting": "[2]", "result": 2, "unit": "× MIC"},
      {"measurement": "FPKM of gene b1943", "setting": "[3]; control 0", "result": 0},
      {"measurement": "FPKM of gene b1815", "setting": "[3]; control 22.7313", "result": 15.6958},
      {"measurement": "FPKM of gene b0242", "setting": "[3]; control 40.7621", "result": 43.1933},
      {"measurement": "FPKM of gene b2495", "setting": "[3]; control 62.5019", "result": 46.4771},
      {"measurement": "FPKM of gene b4004", "setting": "[3]; control 64.6122", "result": 63.7219},
      {"measurement": "FPKM of gene b3846 (3-hydroxyacyl-CoA dehydrogenase)", "setting": "[3]; control 97", "result": 94},
      {"measurement": "FPKM of gene b1093 (3-ketoacyl-acyl carrier protein reductase)", "setting": "[3]; control 633", "result": 627},
      {"measurement": "readcount of gene b0001 in treated sample", "setting": "[3]; differential analysis", "result": 28.7713},
      {"measurement": "readcount of gene b0002 in treated sample", "setting": "[3]; differential analysis", "result": 277.558},
      {"measurement": "readcount of gene b0003 in treated sample", "setting": "[3]; differential analysis", "result": 192.091},
      {"measurement": "readcount of gene b0004 in treated sample", "setting": "[3]; differential analysis", "result": 222.554},
      {"measurement": "readcount of gene b0005 in treated sample", "setting": "[3]; differential analysis", "result": 14.3856},
      {"measurement": "FPKM of gene A1S_1815", "setting": "[4]; control 0", "result": 0},
      {"measurement": "FPKM of gene Novel00132", "setting": "[4]; control 18.2658", "result": 8.387},
      {"measurement": "FPKM of gene A1S_0707", "setting": "[4]; control 51.3724", "result": 62.4914},
      {"measurement": "FPKM of gene A1S_2182", "setting": "[4]; control 136.449", "result": 191.991},
      {"measurement": "FPKM of gene A1S_2061 (3-ketoacyl-acyl carrier protein reductase)", "setting": "[4]; control 323", "result": 328},
      {"measurement": "FPKM of gene A1S_1368", "setting": "[4]; control 2030.48", "result": 1961.71},
      {"measurement": "readcount of gene A1S_0001 in treated sample", "setting": "[4]; differential analysis", "result": 246.119},
      {"measurement": "readcount of gene A1S_0002 in treated sample", "setting": "[4]; differential analysis", "result": 308.109},
      {"measurement": "readcount of gene A1S_0003 in treated sample", "setting": "[4]; differential analysis", "result": 33.1432},
      {"measurement": "readcount of gene A1S_0004 in treated sample", "setting": "[4]; differential analysis", "result": 622.97},
      {"measurement": "membrane integrity (PI fluorescence)", "setting": "[5]; 1/4× MIC", "result": "did not affect the integrity of bacterial membranes"},
      {"measurement": "membrane integrity (PI fluorescence)", "setting": "[5]; 4× MIC (high concentration)", "result": "some of the bacterial membranes were broken slightly"},
      {"measurement": "FPKM of gene PADK2_26395", "setting": "[6]; control 7.76041", "result": 10.0809},
      {"measurement": "FPKM of gene PADK2_02440", "setting": "[6]; control 10.8663", "result": 14.499},
      {"measurement": "FPKM of gene PADK2_25635", "setting": "[6]; control 48.5098", "result": 42.4346},
      {"measurement": "FPKM of gene PADK2_02970", "setting": "[6]; control 53.0528", "result": 66.953},
      {"measurement": "FPKM of gene PADK2_25405 (3-ketoacyl-acyl carrier protein reductase)", "setting": "[6]; control 56", "result": 43},
      {"measurement": "FPKM of gene PADK2_17500", "setting": "[6]; control 97.7062", "result": 119.076},
      {"measurement": "FPKM of gene PADK2_09275 (3-hydroxyacyl-CoA dehydrogenase)", "setting": "[6]; control 361", "result": 369},
      {"measurement": "readcount of gene Novel00001 in treated sample", "setting": "[6]; differential analysis", "result": 77.24},
      {"measurement": "readcount of gene Novel00002 in treated sample", "setting": "[6]; differential analysis", "result": 21.4195},
      {"measurement": "readcount of gene Novel00003 in treated sample", "setting": "[6]; differential analysis", "result": 79.1872},
      {"measurement": "readcount of gene Novel00004 in treated sample", "setting": "[6]; differential analysis", "result": 104.501},
      {"measurement": "readcount of gene Novel00005 in treated sample", "setting": "[6]; differential analysis", "result": 85.0289},
      {"measurement": "32 μg/ml levofloxacin expressed as multiple of MIC", "setting": "[7]; P. aeruginosa 1409", "result": 2, "unit": "× MIC"},
      {"measurement": "1/4× MIC", "setting": "[7]; P. aeruginosa strain 1409", "result": 4, "unit": "mg/L"},
      {"measurement": "4× MIC", "setting": "[7]; P. aeruginosa strain 1409", "result": 64, "unit": "mg/L"},
      {"measurement": "FPKM of gene KPNJ2_01473", "setting": "[8]; control 0", "result": 1.282},
      {"measurement": "FPKM of gene KPNJ2_01064", "setting": "[8]; control 3.68216", "result": 0},
      {"measurement": "FPKM of gene KPNJ2_04725", "setting": "[8]; control 22.8601", "result": 21.9489},
      {"measurement": "FPKM of gene KPNJ2_03426 (3-ketoacyl-acyl carrier protein reductase)", "setting": "[8]; control 41.4", "result": 80.6},
      {"measurement": "FPKM of gene KPNJ2_01584 (Enoyl-CoA hydratase)", "setting": "[8]; control 128", "result": 190},
      {"measurement": "FPKM of gene KPNJ2_04200", "setting": "[8]; control 4040.19", "result": 4507.07},
      {"measurement": "readcount of gene KPNJ2_00001 in treated sample", "setting": "[8]; differential analysis", "result": 119.391},
      {"measurement": "readcount of gene KPNJ2_00002 in treated sample", "setting": "[8]; differential analysis", "result": 95.8073},
      {"measurement": "readcount of gene KPNJ2_00003 in treated sample", "setting": "[8]; differential analysis", "result": 27.2682},
      {"measurement": "readcount of gene KPNJ2_00004 in treated sample", "setting": "[8]; differential analysis", "result": 368.489},
      {"measurement": "readcount of gene KPNJ2_00005 in treated sample", "setting": "[8]; differential analysis", "result": 375.122},
      {"measurement": "32 μg/ml levofloxacin expressed as multiple of MIC", "setting": "[9]", "result": 1, "unit": "× MIC"}
    ]},
    {"molecule": "B1", "values": [
      {"measurement": "binding result", "setting": "[10]", "result": "binds"}
    ]}
  ]
}
